Results from patent US20110144125A1, “Anti-Arrhythmia Agents, Methods of Their Use, Methods of Their Identification and Kits Therefore” (THE UAB RESEARCH FOUNDATION, priority 2008, published 2011).

What was measured:
[1] = test system: rat left atrial appendage; test: 2-APB-induced spontaneous mechanical activity (SMA/SMEs) in isolated superfused rat left atria / left atrial appendage; details: 3 Hz paced; data not shown
Experimental: Left atria were isolated from male Sprague-Dawley rats (325 to 400 g) under IP pentobarbital anesthesia (0.1 g/kg). Isolated left atria were superfused at 30° C. in Krebs-Henseleit (KH) buffer of the following mM composition: NaCl, 118; NaHCO3, 27; KCl, 4.8; MgSO4, 1.2; KH2PO4, 1.0; CaCl2, 1.8; and glucose, 11.1. Nearly isometric left atrial forces of contraction were measured as described.
Isolated superfused left atria were paced at 3 Hz. 2-APB was added to atrial superfusates from 0.015 or 0.15M DMSO stock solutions to achieve concentrations of 0, 2, 7.5, 15, or 22 μM (n=5 to 10 atria per concentration). Changes in atrial mechanical force were recorded during a subsequent 15 min superfusion.
Two groups of 5 to 6, 3 Hz paced atria were superfused in KH and exposed to 0 or 15 μM 2-APB for 10 min. The pacing stimulus was interrupted for 5 min and the number of spontaneous mechanical events (SMEs), defined as increases in mechanical force occurring in the absence of pacing, were measured as was the postrest potentiation response (PRP).
To determine whether diastolic interval affected the interaction between 2-APB and left atria, atrial pacing was decreased to 0.1 Hz, and 0, 7.5, or 22 μM 2-APB was added to the superfusate (n=6-8 per group). Superfusions continued for 15 min, and changes in atrial mechanical function were observed.
To establish whether SMA was reversible, atria (n=7) were paced at 0.1 Hz, exposed to 15 μM 2-APB for 10 min, and washed with KH. The effect of removing 2-APB on atrial mechanical function was recorded.
To test whether an anion transport inhibitor affected SMA, atria (n=7) were paced at 0.1 Hz in KH and exposed to 15 μM 2-APB. Following the appearance of SMA, they were titrated with 100 to 400 μM DIDS for 3 to 5 min at each concentration. Whether SMA occurred at the end of each titration period was recorded.
Left atria (n=10 per group) were paced at 0.1 Hz and treated with (i) 20 μM 2-APB for 10 min, (ii) with 30 nM isoproterenol for 5 min followed by 20 μM 2-APB for 10 min, and (iii) with 3 μM forskolin for 5 min followed by 20 μM 2-APB for 10 min.
The appendages then were titrated with increasing concentrations of 2-APB, and SMA was measured and recorded.
To determine the anti-arrhythmic activity of gossypol, isolated rat left atrial appendage and right ventricular muscle strips were used as model systems, as described above. Heart muscle was exposed to 20 μM 2-APB for 10 min to induce SMA, and rates of SMA were recorded as a percentage of initial SMA. The muscles then were titrated with up to 5 increasing concentrations of gossypol. Rates of SMA were recorded ˜10 min after the addition of concentration of the polyphenol.
To determine whether EGCG can prevent arrhythmia, rat left atrial appendages (n=9) were exposed to 20 μM 2-APB and rates of SMA were recorded. Groups of muscles (n=6 per) were pre-treated with 30 μM EGCG for 10 min following which they were exposed to 2-APB. Rates of SMA were recorded 10 min later.
To determine whether EGCG is effective to reverse arrhythmia, isolated rat left atrial appendage and right ventricular muscle strips were used as model systems, as described above. Rat left atrial appendages were exposed to 20 μM 2-APB for 10 min to induce SMA, and rates of SMA were recorded as a percentage of initial SMA. The left atrial appendages then were titrated with up to 5 increasing concentrations of the following polyphenols: EGCG, gossypol, resveratrol, and quercetin. Rates of SMA were recorded ˜10 min after the addition of concentration of the polyphenol.
To determine whether EGC can prevent arrhythmia, left atrial appendages (n=9) were exposed to 20 μM 2-APB and rates of SMA were recorded. Groups of appendages (n=6 per) were pre-treated with 30 μM EGC for 10 min following which they were exposed to 2-APB.

[2] = test system: right ventricular muscle strips and right or left ventricular papillary muscles; test: Ventricular muscle model of SMA and STA; set-up: species or system rat; details: paced at 0.5 Hz, added to the superfusate in appropriate amounts
Description: To further establish this model as a general test for arrhythmic and anti-arrhythmic agents, right ventricular muscle strips and right or left ventricular papillary muscles were isolated from anesthetized rats as cardiac muscle exemplars using methods known to persons skilled in the art. Additional exemplars could include ventricular or atrial conduction system cells and the SAN itself. These muscles were then superfused as described above and paced at 0.5 Hz.

[3] = test system: rat left atrial appendage; test: ATXII-induced triggered activity and transition to automaticity in left atrial appendage
Description: There are two types of afterdepolarizations; early afterdepolarizations (EADs) that occur early during repolarization and delayed afterdepolarizations (DADs) that occur in fully repolarized, resting myocytes (FIG. 4). Both EADs and DADs are defined as “triggered” activities as they require a preceding normal action potential to occur (FIG. 3B). One model to elicit EADs is to expose heart muscle or myocytes to Anemonia sulcata Toxin II (ATX II). This 47 amino acid peptide specifically enhances late sodium current and prolongs the action potential duration (FIG. 3D; middle panel). This leads to calcium loading of heart muscle followed by EADs during phase 2 or phase 3 of the action potential (FIGS. 3D & 5). These EADs, if of sufficient magnitude, produce ectopic mechanical events (FIG. 3B; ‡).
In embodiments of the assay an agent to induce arrhythmia will be introduced in the muscle. The arrhythmic agent may be chemical or physical. If the agent is chemical, it can be any chemical agent known by those skilled in the art to induce arrhythmia. The chemical agent will be introduced at a concentration sufficient to induce arrhythmia. If a certain type of arrhythmia is the subject of the assay (for example, triggered activity, tachycardia or any other type of arrhythmia), then the agent should be present at a concentration sufficient to produce the certain type of arrhythmia. One acceptable agent is anemone toxin II (“ATX II,”), the toxin of Anemone sulcata. ATX II is a sodium channel regulator.
It was tested whether the altered voltage-independent calcium homeostasis which 2-APB provokes is sufficient to initiate frank automaticity from triggered activity.

Row | Compound | SMEs per min compared with 2-APB [1] | ventricular SMA [2] | ATXII concentration provoking automatic activity [3] | effect on action potential ([3]; 30 nM ATXII, paced at 1 Hz) | ATXII concentration inducing triggered activity / aftercontractions ([3]; paced left atrial appendages)
1 | c1ccc(B(OB(c2ccccc2)c2ccccc2)c2ccccc2)cc1 [diphenyl boronic anhydride] | gave similar results | ventricular SMA was observed |  |  | 
2 | ATXII: 47 amino acid peptide that enhances late sodium current and prolongs action potential duration |  |  | > 50 nM | prolongs action potential duration | < 50 nM
